What was measured:
[1] = Relationship of the crystalline forms: relative thermodynamic stability and critical water activity; type: physicochemical; conditions: ambient conditions; T1F-2 compared with T1F-1
Source text: Herein we describe three crystalline forms of the monohydrochloride salt, Compound I, that have been prepared and identified: the monohydrochloride monohydrate H-4 form and two monohydrochloride forms designated as […]-1 and […]-2. […] The critical water activity between the […]-2 and H-4 forms is in the range 0.05-0.24.

[2] = Dehydration of form H-4 to anhydrous form P44 on drying / sensitivity to relative humidity; type: physicochemical
Experimental: Additionally, the ternary solvent mixture THF/water/MeCN can be used. If the resultant H-4 form is dried at a temperature greater than 60° C., then it converts to an anhydrous form of H-4, designated as P44. […] In practice, to minimize conversion to the P44 form, the drying can be conducted under a stream of humidified nitrogen gas.

| sensitivity to relative humidity [2] | drying temperature at which H-4 converts to anhydrous form P44 ([2]; drying of the resultant H-4 form) | temperature of dehydration to the P44 form ([2]; under a stream of dry nitrogen gas) [°C] | SMILES | relative thermodynamic stability of the crystalline forms [1] |
| --- | --- | --- | --- | --- |
|  |  |  | C=C(C)[C@@H]1CC[C@]2(NCCN3CCS(=O)(=O)CC3)CC[C@]3(C)[C@H](CC[C@@H]4[C@@]5(C)CC=C(c6ccc(C(=O)O)cc6)C(C)(C)[C@@H]5CC[C@]43C)[C@@H]12.Cl [Form T1F-2, 4-((1R,3aS,5aR,5bR, 7aR, 11aS,11bR,13aR,13bR)-3a-((2-(1,1-dioxidothiomorpholino)ethyl)amino)-5a,5b,8,8,11a-pentamethyl-1-(prop-1-en-2-yl)-2,3,3a,4,5,5a,5b,6,7,7a,8, 11,11a,11b, 12,13,13a,13b-octadecahydro-1H-cyclopenta[a]chrysen-9-yl)benzoic acid hydrochloride] | thermodynamically more stable than T1F-1 form |
| sensitive to relative humidity | greater than 60 °C | ≥ 30 | C=C(C)[C@@H]1CC[C@]2(NCCN3CCS(=O)(=O)CC3)CC[C@]3(C)[C@H](CC[C@@H]4[C@@]5(C)CC=C(c6ccc(C(=O)O)cc6)C(C)(C)[C@@H]5CC[C@]43C)[C@@H]12.Cl [Form H-4, 4-((1R,3aS,5aR,5bR, 7aR, 11aS,11bR,13aR,13bR)-3a-((2-(1,1-dioxidothiomorpholino)ethyl)amino)-5a,5b,8,8,11a-pentamethyl-1-(prop-1-en-2-yl)-2,3,3a,4,5,5a,5b,6,7,7a,8, 11,11a,11b, 12,13,13a,13b-octadecahydro-1H-cyclopenta[a]chrysen-9-yl)benzoic acid hydrochloride hydrate] |  |

From patent US20180094019A1, “CRYSTALLINE FORMS OF MODIFIED TRITERPENOID HYDROCHLORIDE SALTS WITH HIV MATURATION INHIBITOR ACTIVITY” (VIIV HEALTHCARE UK (NO.4) LIMITED, priority 2015, published 2018)
